Our source for the IC50 values is patent US8461160B2, “Dihydropyrimidinones” (Hoffmann-La Roche, Inc., priority 2009, dated 2013).

The experiment concerns the target T1, BACE2 (Homo sapiens, UniProt Q9Y5Z0).
T1 construct: BACE2 enzyme ectodomain (derived from plasmid “pET17b-T7-hu proBACE2”) was prepared as described in Ostermann et al; T7 tag (N); made in house
T1 sequence (Q9Y5Z0 21-473 limits assumed): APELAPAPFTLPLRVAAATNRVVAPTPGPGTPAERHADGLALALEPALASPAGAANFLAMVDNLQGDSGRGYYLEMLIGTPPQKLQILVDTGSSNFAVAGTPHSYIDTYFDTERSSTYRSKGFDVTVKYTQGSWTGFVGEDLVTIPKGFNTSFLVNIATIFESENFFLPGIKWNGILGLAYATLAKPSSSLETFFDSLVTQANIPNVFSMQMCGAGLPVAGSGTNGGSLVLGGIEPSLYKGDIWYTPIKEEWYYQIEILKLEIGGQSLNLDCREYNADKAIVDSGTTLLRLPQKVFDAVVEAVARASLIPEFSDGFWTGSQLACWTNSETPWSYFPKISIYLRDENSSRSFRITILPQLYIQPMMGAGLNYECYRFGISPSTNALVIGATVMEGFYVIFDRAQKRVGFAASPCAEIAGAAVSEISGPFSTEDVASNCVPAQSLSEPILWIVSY
The experiment in a line: Fluorescent-peptide cleavage assay for BACE2 inhibition. The class given is biochemical. The note with it: BACE2 enzyme ectodomain, fluorescent peptide WS EVNLD AEFRC-MR121, assay buffer pH 4.5, room temperature. An outline of the steps: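 Pro-enzyme BACE2 was activated at 80 nM for 1 h at room temperature in 100 mM Na-acetate, 20 mM EDTA, 0.05% BSA, pH 4.5, then preincubated 10 min with compound. IC50 from sigmoidal dose-response fit.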

Compound `CN1C(=O)C[C@@](C)(c2cccc(NC(=O)c3nccc4ccsc34)c2)N=C1N` [Example 60, Thieno[2,3-c]pyridine-7-carboxylic acid [3-((S)-2-amino-1,4-dimethyl-6-oxo-1,4,5,6-tetrahydro-pyrimidin-4-yl)-phenyl]-amide] came in with a concentration for half-maximal inhibition (IC50) of 240 nM.
To `CC[C@@]1(c2cccc(NC(=O)c3ccccn3)c2)CC(=O)N(C)C(N)=N1` [Example 40, Pyridine-2-carboxylic acid [3-((S)-2-amino-4-ethyl-1-methyl-6-oxo-1,4,5,6-tetrahydro-pyrimidin-4-yl)-phenyl]-amide] belongs 39 nM.
Consider `CN1C(=O)C[C@@](C)(c2cccc(NC(=O)c3ccccn3)c2)N=C1N` [Example 13, Pyridine-2-carboxylic acid [3-((S)-2-amino-1,4-dimethyl-6-oxo-1,4,5,6-tetrahydro-pyrimidin-4-yl)-phenyl]-amide], for which half-maximal inhibition (IC50) was put at 9 nM.
On to `CN1C(=O)C[C@@](C)(c2cccc(NC(=O)c3ccc4ccccc4n3)c2)N=C1N` [Example 58, Quinoline-2-carboxylic acid [3-((S)-2-amino-1,4-dimethyl-6-oxo-1,4,5,6-tetrahydro-pyrimidin-4-yl)-phenyl]-amide], for which the half-inhibitory concentration (IC50) was 410 nM.
To `COc1cccnc1C(=O)Nc1ccc(F)c([C@@]2(C)N=C(N)N(C)C(=O)C2(C)C)c1` [Example 104, 3-Methoxy-pyridine-2-carboxylic acid [3-((S)-2-amino-1,4,5,5-tetramethyl-6-oxo-1,4,5,6-tetrahydro-pyrimidin-4-yl)-4-fluoro-phenyl]amide] belongs 150 nM; to `Cc1ccc(C(=O)Nc2cccc([C@]3(C)CC(=O)N(C)C(N)=N3)c2)s1` [Example 1, 5-Methyl-thiophene-2-carboxylic acid [3-((S)-2-amino-1,4-dimethyl-6-oxo-1,4,5,6-tetrahydro-pyrimidin-4-yl)-phenyl]-amide], 13 nM; to `CN1C(=O)C[C@@](C)(c2cccc(NC(=O)c3nc(Cl)ccc3C(F)(F)F)c2)N=C1N` [Example 72, 6-Chloro-3-trifluoromethyl-pyridine-2-carboxylic acid [3-((S)-2-amino-1,4-dimethyl-6-oxo-1,4,5,6-tetrahydro-pyrimidin-4-yl)-phenyl]-amide], 1520 nM.
The compound `CN1C(=O)C[C@@](C)(c2cccc(NC(=O)c3ccn(C)n3)c2)N=C1N` [Example 69, 1-Methyl-1H-pyrazole-3-carboxylic acid [3-((S)-2-amino-1,4-dimethyl-6-oxo-1,4,5,6-tetrahydro-pyrimidin-4-yl)-phenyl]-amide] showed an IC50 of 61 nM.
The figure for `CN1C(=O)C[C@@](C)(c2cccc(NC(=O)c3ccn(CC(F)(F)F)n3)c2)N=C1N` [Example 73, 1-(2,2,2-Trifluoro-ethyl)-1H-pyrazole-3-carboxylic acid [3-((S)-2-amino-1,4-dimethyl-6-oxo-1,4,5,6-tetrahydro-pyrimidin-4-yl)-phenyl]-amide] is 2070 nM.

By IC50 is commonly meant the midpoint of a concentration-inhibition curve. A higher IC50 goes with a need for much substance.
